Data as given in PubChem BioAssay AID1963865 (Molecular Pharmacology Branch, DTP, NCI, 2024).

Test system: KRAS PDC multicell spheroid viability
Experiment: Anticancer human tumor 825966-067-R-J1-PDC patient-derived colon carcinoma cell line growth inhibition [KRAS2]
Conditions: for IC50: curve of first compound; for viability, T/C: stronger effect = lower value; active = viability on the fitted dose curve at most 10% of control; inactive = the rest
Excerpt: Multicellular complex tumor spheroid response to RAS pathway inhibitors in combination with a targeted agents in patient-derived cell lines with oncogenic KRAS variants from multiple cancer types
A high-throughput screen of multi-cell type tumor spheroids was designed to identify active combinations of targeted small molecules and KRAS pathway inhibitors. Complex spheroids include a stromal component modeled by human endothelial cells (HUVEC) and fibroblasts modeled by human mesenchymal stem cells (MSCs). The concentration ranges selected for each drug and investigational agent were based upon clinically achievable concentrations if the clinical Cmax of the agent was known.
Compounds. The drugs and investigational agents: BI-3406 (NSC825286), BAY-293 (NSC824723), batoprotafib (TNO155; NSC825523), sotorasib (AMG 510; NSC818433), MRTX1257 (NSC819558), elimusertib (BAY 1895344; NSC800525), molibresib (GSK525762; NSC774829), temuterkib (LY3214996; NSC803410), venetoclax (NSC766270), alisertib (NSC759677), olaparib (NSC753686), talazoparib (NSC767125), erdafitinib (NSC781556), ipatasertib (NSC767898), cabozantinib (NSC761068), nintedanib (NSC756659), abemaciclib (NSC768073), docetaxel (NSC628503), trametinib (NSC758246), and sapanisertib (NSC764658) were obtained from the National Cancer Institute (NCI) Developmental Therapeutics Program Chemical Repository. The FDA-approved anticancer drug set is available from the Developmental Therapeutics Program. […] The stock solutions were prepared in dimethyl sulfoxide (DMSO, Sigma-Aldrich, St. Louis, MO, cat. D2650) at 800-fold the tested concentration and stored at -70 degrees C prior to their use. All drugs and investigational agents were tested over a range starting from a high concentration at or near the clinical Cmax and decreasing in half-log increments. If the clinical Cmax for an agent had not been determined, the highest concentration tested was 10 microM.
Cell Culture. All cells were maintained in an incubator at 37 degrees C and 5% CO2 with 95% humidity. The PDC lines were cultured according to standard operating procedures established by the NCI PDMR (https://pdmr.cancer.gov/sops/default.htm). Briefly, all PDCs were thawed and cultured in Matrigel-coated flasks prepared with a working solution of 1X Ham's F-12 nutrient mix, without supplementation (Invitrogen, Waltham, MA, cat. 11765054), 100 U/mL penicillin-streptomycin (Invitrogen, cat. 15140122), and 2.5% Matrigel (Corning Inc., Corning, NY, cat. 354248) for the first three passages. All PDCs were cultured in complete DMEM/F-12 media containing advanced DMEM/F-12 (Invitrogen, cat. 12634028), 4.9% defined fetal bovine serum, heat inactivated (HyClone Laboratories Inc., Logan, UT, cat. SH30070.03HI), 389 ng/mL hydrocortisone (Sigma-Aldrich, cat. H4001), 9.7 ng/mL human EGF recombinant protein (Invitrogen, cat. PHG0313), 23.4 microg/mL adenine (Sigma-Aldrich, cat. A2786), 97.3 U/mL penicillin-streptomycin (Invitrogen, cat. 15140122), 1.9 mM L-glutamine (Invitrogen, cat. 25030081), and 9.7 microM Y-27632 dihydrochloride (Tocris Bioscience, Bristol, United Kingdom, cat. 1254). The PDCs were cultured in complete DMEM/F12 media without 9.7 microM Y-27632 dihydrochloride for at least two passages prior to the screen. The established cell line HOP-62 was cultured in RPMI 1640 medium, HEPES (Invitrogen, cat. 22400105) with 10% defined fetal bovine serum (HyClone Laboratories Inc., cat. SH30070.03) and 2 mM L-glutamine (Invitrogen, cat. 25030081). The pooled donor HUVEC were cultured in endothelial cell growth medium 2 (PromoCell, Heidelberg, Germany, cat. C-22011) and the hMSC were cultured in mesenchymal stem cell growth medium 2 (PromoCell, cat. C-28009). For all experiments, HUVEC and hMSC were used at passages </=5, while the malignant cell lines were used at passages </=15. […]

[1] = second compound 0.1 µM, first compound 0.0316 µM
[2] = second compound 0.1 µM, first compound 0.1 µM
[3] = second compound 0.316 µM, first compound 0.0316 µM
[4] = second compound 0.316 µM, first compound 0.1 µM
[5] = second compound 1 µM, first compound 0.0316 µM
[6] = second compound 1 µM, first compound 0.1 µM
[7] = second compound 3.16 µM, first compound 0.0316 µM
[8] = second compound 3.16 µM, first compound 0.1 µM
[9] = second compound 10 µM, first compound 0.0316 µM
[10] = second compound 10 µM, first compound 0.1 µM
[11] = second compound 0.1 µM, first compound 0.316 µM
[12] = second compound 0.1 µM, first compound 1 µM
[13] = second compound 0.1 µM, first compound 3.16 µM
[14] = second compound 0.1 µM, first compound 10 µM
[15] = second compound 0.316 µM, first compound 0.316 µM
[16] = second compound 0.316 µM, first compound 1 µM
[17] = second compound 0.316 µM, first compound 3.16 µM
[18] = second compound 0.316 µM, first compound 10 µM
[19] = second compound 1 µM, first compound 0.316 µM
[20] = second compound 1 µM, first compound 1 µM
[21] = second compound 1 µM, first compound 3.16 µM
[22] = second compound 1 µM, first compound 10 µM
[23] = second compound 3.16 µM, first compound 0.316 µM
[24] = second compound 3.16 µM, first compound 1 µM
[25] = second compound 3.16 µM, first compound 3.16 µM
[26] = second compound 3.16 µM, first compound 10 µM
[27] = second compound 10 µM, first compound 0.316 µM
[28] = second compound 10 µM, first compound 1 µM
[29] = second compound 10 µM, first compound 3.16 µM
[30] = second compound 10 µM, first compound 10 µM
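Note: spheroids exposed to compounds for 7 days.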

CC(C)n1nc(-c2ccc3oc(N)nc3c2)c2c(N)ncnc21 + C=CC(=O)N1CCN(c2nc(=O)n(-c3c(C)ccnc3C(C)C)c3nc(-c4c(O)cccc4F)c(F)cc23)C(C)C1
inactive: viability, T/C (second compound 0.1 µM, first compound 0.000316 µM) 113% | viability, T/C (second compound 0.1 µM, first compound 0.001 µM) 116% | viability, T/C (second compound 0.1 µM, first compound 0.00316 µM) 114% | viability, T/C (second compound 0.1 µM, first compound 0.01 µM) 147% | viability, T/C [1] 130% | viability, T/C [2] 142% | viability, T/C (second compound 0.316 µM, first compound 0.000316 µM) 112% | viability, T/C (second compound 0.316 µM, first compound 0.001 µM) 96.7% | viability, T/C (second compound 0.316 µM, first compound 0.00316 µM) 118% | viability, T/C (second compound 0.316 µM, first compound 0.01 µM) 130% | viability, T/C [3] 154% | viability, T/C [4] 101% | viability, T/C (second compound 1 µM, first compound 0.000316 µM) 106% | viability, T/C (second compound 1 µM, first compound 0.001 µM) 102% | viability, T/C (second compound 1 µM, first compound 0.00316 µM) 129% | viability, T/C (second compound 1 µM, first compound 0.01 µM) 138% | viability, T/C [5] 89.9% | viability, T/C [6] 107% | viability, T/C (second compound 3.16 µM, first compound 0.000316 µM) 103% | viability, T/C (second compound 3.16 µM, first compound 0.001 µM) 99.5% | viability, T/C (second compound 3.16 µM, first compound 0.00316 µM) 103% | viability, T/C (second compound 3.16 µM, first compound 0.01 µM) 119% | viability, T/C [7] 114% | viability, T/C [8] 114% | viability, T/C (second compound 10 µM, first compound 0.000316 µM) 89.6% | viability, T/C (second compound 10 µM, first compound 0.001 µM) 94.7% | viability, T/C (second compound 10 µM, first compound 0.00316 µM) 106% | viability, T/C (second compound 10 µM, first compound 0.01 µM) 93.5% | viability, T/C [9] 79.4% | viability, T/C [10] 76.5%
> 0.1 µM: IC50 (second compound 0.1 µM) | IC50 (second compound 0.316 µM) | IC50 (second compound 1 µM) | IC50 (second compound 3.16 µM) | IC50 (second compound 10 µM)

CC1(C)CCC(CN2CCN(c3ccc(C(=O)NS(=O)(=O)c4ccc(NCC5CCOCC5)c([N+](=O)[O-])c4)c(Oc4cnc5[nH]ccc5c4)c3)CC2)=C(c2ccc(Cl)cc2)C1 + C=CC(=O)N1CCN(c2nc(=O)n(-c3c(C)ccnc3C(C)C)c3nc(-c4c(O)cccc4F)c(F)cc23)C(C)C1
1.77 µM: IC50 (second compound 3.16 µM)
active: viability, T/C [14] 6.39% | viability, T/C [18] 5.85% | viability, T/C [22] 1.24% | viability, T/C [26] 2.96% | viability, T/C [29] 9.64% | viability, T/C [30] 1.37%
inactive: viability, T/C [1] 90.5% | viability, T/C [2] 99.3% | viability, T/C [11] 115% | viability, T/C [12] 95.9% | viability, T/C [13] 20.8% | viability, T/C [3] 93.6% | viability, T/C [4] 86.6% | viability, T/C [15] 103% | viability, T/C [16] 94.7% | viability, T/C [17] 29.2% | viability, T/C [5] 102% | viability, T/C [6] 108% | viability, T/C [19] 81.2% | viability, T/C [20] 104% | viability, T/C [21] 21.3% | viability, T/C [7] 76.4% | viability, T/C [8] 103% | viability, T/C [23] 102% | viability, T/C [24] 81.1% | viability, T/C [25] 18.2% | viability, T/C [9] 89.7% | viability, T/C [10] 98.1% | viability, T/C [27] 107% | viability, T/C [28] 110%
2.19 µM: IC50 (second compound 0.316 µM)
2.07 µM: IC50 (second compound 1 µM)
2.02 µM: IC50 (second compound 0.1 µM)
1.9 µM: IC50 (second compound 10 µM)

COc1cc2nccc(Oc3ccc(NC(=O)C4(C(=O)Nc5ccc(F)cc5)CC4)cc3)c2cc1OC + C=CC(=O)N1CCN(c2nc(=O)n(-c3c(C)ccnc3C(C)C)c3nc(-c4c(O)cccc4F)c(F)cc23)C(C)C1
1.52 µM: IC50 (second compound 3.16 µM)
inactive: viability, T/C [1] 108% | viability, T/C [2] 111% | viability, T/C [11] 81.8% | viability, T/C [12] 88.8% | viability, T/C [3] 91.1% | viability, T/C [4] 122% | viability, T/C [15] 71.7% | viability, T/C [16] 78.3% | viability, T/C [5] 111% | viability, T/C [6] 118% | viability, T/C [19] 85.8% | viability, T/C [20] 87.5% | viability, T/C [7] 88.4% | viability, T/C [8] 77% | viability, T/C [23] 90% | viability, T/C [24] 76.1% | viability, T/C [9] 97.4% | viability, T/C [10] 78.5% | viability, T/C [27] 56.1% | viability, T/C [28] 41.7% | viability, T/C [29] 2%
1.59 µM: IC50 (second compound 0.316 µM)
active: viability, T/C [13] 6.77% | viability, T/C [14] 8.36% | viability, T/C [17] 6.54% | viability, T/C [18] 10.2% | viability, T/C [21] 2.49% | viability, T/C [22] 8.75% | viability, T/C [25] 2.99% | viability, T/C [26] 6.07% | viability, T/C [30] 2.5%
0.461 µM: IC50 (second compound 10 µM)
1.73 µM: IC50 (second compound 0.1 µM)
1.69 µM: IC50 (second compound 1 µM)
